Test results reported in patent publication US20080063628A1, “METHODS TO PROMOTE CELL DIFFERENTIATION” (priority 2006, published 2008).

Tests used:
Assay in all cases: Single trichostatin A dose, 144 h follow-up, gene expression by RT-PCR (Example 6)
Format in all cases: cell-based, human
[1] = tested on: late passage (P14) pancreatic-derived stromal cell line; settings: 1.25 μM once at 0 h
Description: (§1) Several cell lines obtained from different amniotic fluid specimens (see Example 14) and pancreas donors (see Example 13) were tested with similar results. Two lines at similar passage number but derived from different amniotic fluid specimens are shown in Table VI-A and Table VI-B for this example. One of these cell lines was also used in examples 2 and 4 above. In addition, this example also contains comparison data in Table VI-C and Table VI-D for a single pancreatic-derived stromal line grown to early and late passage number.
(§2) Amniotic fluid derived cells or pancreatic-derived stromal cells were seeded into 24-well tissue culture plates at a density of 5000/cm^2 and cultured in AMNIOMAX (Invitrogen) or DMEM with 10% FBS, respectively, under standard cell culture conditions until confluent. After the cells reached confluency, amniotic fluid derived cells were treated once at time 0 hours with 500 nM trichostatin A. Pancreas-derived stromal cells were treated once at time 0 hours with 1.25 μM trichostatin A. Samples for RT-PCR were taken daily from zero to six days at the times indicated in Table VI.
(§3) RNA samples were obtained from the treated cultures up to 144 hours after the initial addition of trichostatin A or DMSO. Culture media was removed, the cells were washed with PBS, and RLT lysis buffer containing β-mercaptoethanol (Qiagen) was added. During culture, the medium was not changed nor was freshly prepared trichostatin A added. RNA was purified using the RNeasy Mini Kit (Qiagen), and RNA quantity and quality was determined using a spectrophotometer. cDNA was made using the iScript cDNA synthesis kit (BioRad).
(§4) Samples of 20 ng cDNA were used in each reaction to determine the expression levels of the following genes in amniotic fluid-derived cells: Gata1, HNF-3 beta, Pdx-1, insulin, and Sox17. Similarly, samples of 20 ng cDNA were used in each reaction to determine the expression level of the following genes in pancreatic-derived stromal cells: glucagon, HNF-3 beta, insulin and Pdx-1. Real-Time PCR was performed on the Applied Biosystems 7500, and data was analyzed using the accompanying software according to the methods described in Example 15.
(§5) Real-time PCR amplifcation and quantitative analysis. Unless otherwise stated, all reagents were purchased from Applied Biosystems. Real-time PCR reactions were performed using the ABI PRISM™ 7500 Sequence Detection System. TAQMAN™ FAST UNIVERSAL PCR MASTER MIX™ (ABI, CA) was used with 20 ng of reverse transcribed RNA in a total reaction volume of 20 μl. Each cDNA sample was run in duplicate to allow correction of pipetting errors. Primers and FAM-labeled TAQMAN™ probes were used at concentrations of 200 nM. The level of expression for each target gene was normalized using the pre-developed Applied Biosystem's human glyceraldehyde-3-phosphate dehydrogenase (GAPDH) endogenous control kit. Primers and probes were designed using either ABI PRISM PRIMER EXPRESS™ software or a pre-developed ABI gene analysis kit. For each gene, either one of the primers or the probe were designed to be exon-boundary spanning. This eliminated the possibility of the primers/probe binding to any genomic DNA present. The primer and probe sets are listed as follows: Pdx-1 (Hs00426216), Insulin (Hs00355773), glucagon (Hs00174967), and FoxA2 (HNF 3-beta) (Hs00232764). The remaining primers were designed using the PRIMERS program (ABI, CA). After an initial 95° C. incubation for 20 sec, samples were cycled 40 times in two stages: a denaturation step at 95° C. for 3 sec, followed by an annealing/extension step at 60° C. for 30 sec.
(§6) For each primer/probe set, a cycle time value was determined as the cycle number at which the fluorescence intensity of the PCR reaction reached a specific value in the middle of the exponential region of amplification. An increase in expression of a gene corresponded to a decrease in the number of cycles required for the fluorescence intensity to reach this value.

[2] = tested on: early passage (P5) pancreatic-derived stromal cell line; settings: 1.25 μM once at 0 h
Description: as §1, §2, §3, §4, §5, §6

[3] = tested on: second amniotic fluid-derived cell line; settings: 500 nM once at 0 h
Description: as §1, §2, §3, §4, §5, §6

CC(/C=C/C(=O)NO)=C\[C@@H](C)C(=O)c1ccc(N(C)C)cc1 [trichostatin A]
HNF (HNF-3 beta) gene expression ([1]; 24 hrs): + (detectable between 35 and 40 cycles RT-PCR) | Insulin gene expression ([1]; 24 hrs): nd (not detectable at >40 cycles by RT-PCR) | Pdx-1 gene expression ([1]; 24 hrs): +++ (detectable at less than 35 cycles RT-PCR with SE less than 0.9) | glucagon gene expression ([1]; 24 hrs): +++ (detectable at less than 35 cycles RT-PCR with SE less than 0.9) | HNF (HNF-3 beta) gene expression ([1]; 48 hrs): nd (not detectable at >40 cycles by RT-PCR) | Insulin gene expression ([1]; 48 hrs): nd (not detectable at >40 cycles by RT-PCR) | Pdx-1 gene expression ([1]; 48 hrs): nd (not detectable at >40 cycles by RT-PCR) | glucagon gene expression ([1]; 48 hrs): + (detectable between 35 and 40 cycles RT-PCR) | HNF (HNF-3 beta) gene expression ([1]; 72 hrs): nd (not detectable at >40 cycles by RT-PCR) | Insulin gene expression ([1]; 72 hrs): nd (not detectable at >40 cycles by RT-PCR) | Pdx-1 gene expression ([1]; 72 hrs): nd (not detectable at >40 cycles by RT-PCR) | glucagon gene expression ([1]; 72 hrs): nd (not detectable at >40 cycles by RT-PCR) | HNF (HNF-3 beta) gene expression ([1]; 96 hrs): nd (not detectable at >40 cycles by RT-PCR) | Insulin gene expression ([1]; 96 hrs): nd (not detectable at >40 cycles by RT-PCR) | Pdx-1 gene expression ([1]; 96 hrs): nd (not detectable at >40 cycles by RT-PCR) | glucagon gene expression ([1]; 96 hrs): nd (not detectable at >40 cycles by RT-PCR) | HNF (HNF-3 beta) gene expression ([1]; 120 hrs): nd (not detectable at >40 cycles by RT-PCR) | Insulin gene expression ([1]; 120 hrs): nd (not detectable at >40 cycles by RT-PCR) | Pdx-1 gene expression ([1]; 120 hrs): nd (not detectable at >40 cycles by RT-PCR) | glucagon gene expression ([1]; 120 hrs): nd (not detectable at >40 cycles by RT-PCR) | HNF (HNF-3 beta) gene expression ([1]; 144 hrs): nd (not detectable at >40 cycles by RT-PCR) | Insulin gene expression ([1]; 144 hrs): nd (not detectable at >40 cycles by RT-PCR) | Pdx-1 gene expression ([1]; 144 hrs): nd (not detectable at >40 cycles by RT-PCR) | glucagon gene expression ([1]; 144 hrs): nd (not detectable at >40 cycles by RT-PCR) | HNF (HNF-3 beta) gene expression ([2]; 24 hrs): +++ (detectable at less than 35 cycles by RT-PCR with SE less than 0.9) | Insulin gene expression ([2]; 24 hrs): nd (not detectable at >40 cycles by RT-PCR) | Pdx-1 gene expression ([2]; 24 hrs): +++ (detectable at less than 35 cycles by RT-PCR with SE less than 0.9) | glucagon gene expression ([2]; 24 hrs): +++ (detectable at less than 35 cycles by RT-PCR with SE less than 0.9) | HNF (HNF-3 beta) gene expression ([2]; 48 hrs): nd (not detectable at >40 cycles by RT-PCR) | Insulin gene expression ([2]; 48 hrs): nd (not detectable at >40 cycles by RT-PCR) | Pdx-1 gene expression ([2]; 48 hrs): nd (not detectable at >40 cycles by RT-PCR) | glucagon gene expression ([2]; 48 hrs): + (detectable between 35 and 40 cycles by RT-PCR) | HNF (HNF-3 beta) gene expression ([2]; 72 hrs): nd (not detectable at >40 cycles by RT-PCR) | Insulin gene expression ([2]; 72 hrs): nd (not detectable at >40 cycles by RT-PCR) | Pdx-1 gene expression ([2]; 72 hrs): nd (not detectable at >40 cycles by RT-PCR) | glucagon gene expression ([2]; 72 hrs): + (detectable between 35 and 40 cycles by RT-PCR) | HNF (HNF-3 beta) gene expression ([2]; 96 hrs): nd (not detectable at >40 cycles by RT-PCR) | Insulin gene expression ([2]; 96 hrs): nd (not detectable at >40 cycles by RT-PCR) | Pdx-1 gene expression ([2]; 96 hrs): nd (not detectable at >40 cycles by RT-PCR) | glucagon gene expression ([2]; 96 hrs): +++ (detectable at less than 35 cycles by RT-PCR with SE less than 0.9) | HNF (HNF-3 beta) gene expression ([2]; 120 hrs): nd (not detectable at >40 cycles by RT-PCR) | Insulin gene expression ([2]; 120 hrs): nd (not detectable at >40 cycles by RT-PCR) | Pdx-1 gene expression ([2]; 120 hrs): nd (not detectable at >40 cycles by RT-PCR) | glucagon gene expression ([2]; 120 hrs): nd (not detectable at >40 cycles by RT-PCR) | HNF (HNF-3 beta) gene expression ([2]; 144 hrs): nd (not detectable at >40 cycles by RT-PCR) | Insulin gene expression ([2]; 144 hrs): nd (not detectable at >40 cycles by RT-PCR) | Pdx-1 gene expression ([2]; 144 hrs): nd (not detectable at >40 cycles by RT-PCR) | glucagon gene expression ([2]; 144 hrs): nd (not detectable at >40 cycles by RT-PCR) | Gata1 gene expression ([3]; 24 hrs): nd (not detectable at >40 cycles by RT-PCR) | HNF (HNF-3 beta) gene expression ([3]; 24 hrs): +++ (detectable at less than 35 cycles by RT-PCR with SE less than 0.9) | Insulin gene expression ([3]; 24 hrs): nd (not detectable at >40 cycles by RT-PCR) | Pdx-1 gene expression ([3]; 24 hrs): + (detectable between 35 and 40 cycles by RT-PCR) | sox17 gene expression ([3]; 24 hrs): +++ (detectable at less than 35 cycles by RT-PCR with SE less than 0.9) | Gata1 gene expression ([3]; 48 hrs): nd (not detectable at >40 cycles by RT-PCR) | HNF (HNF-3 beta) gene expression ([3]; 48 hrs): +++ (detectable at less than 35 cycles by RT-PCR with SE less than 0.9) | Insulin gene expression ([3]; 48 hrs): nd (not detectable at >40 cycles by RT-PCR) | Pdx-1 gene expression ([3]; 48 hrs): nd (not detectable at >40 cycles by RT-PCR) | sox17 gene expression ([3]; 48 hrs): +++ (detectable at less than 35 cycles by RT-PCR with SE less than 0.9) | Gata1 gene expression ([3]; 72 hrs): nd (not detectable at >40 cycles by RT-PCR) | HNF (HNF-3 beta) gene expression ([3]; 72 hrs): + (detectable between 35 and 40 cycles by RT-PCR) | Insulin gene expression ([3]; 72 hrs): + (detectable between 35 and 40 cycles by RT-PCR) | Pdx-1 gene expression ([3]; 72 hrs): nd (not detectable at >40 cycles by RT-PCR) | sox17 gene expression ([3]; 72 hrs): +++ (detectable at less than 35 cycles by RT-PCR with SE less than 0.9) | Gata1 gene expression ([3]; 96 hrs): nd (not detectable at >40 cycles by RT-PCR) | HNF (HNF-3 beta) gene expression ([3]; 96 hrs): + (detectable between 35 and 40 cycles by RT-PCR) | Insulin gene expression ([3]; 96 hrs): ++ (detectable at less than 35 cycles by RT-PCR with SE greater than 0.9) | Pdx-1 gene expression ([3]; 96 hrs): nd (not detectable at >40 cycles by RT-PCR) | sox17 gene expression ([3]; 96 hrs): +++ (detectable at less than 35 cycles by RT-PCR with SE less than 0.9) | Gata1 gene expression ([3]; 120 hrs): nd (not detectable at >40 cycles by RT-PCR) | HNF (HNF-3 beta) gene expression ([3]; 120 hrs): + (detectable between 35 and 40 cycles by RT-PCR) | Insulin gene expression ([3]; 120 hrs): ++ (detectable at less than 35 cycles by RT-PCR with SE greater than 0.9) | Pdx-1 gene expression ([3]; 120 hrs): nd (not detectable at >40 cycles by RT-PCR) | sox17 gene expression ([3]; 120 hrs): +++ (detectable at less than 35 cycles by RT-PCR with SE less than 0.9) | Gata1 gene expression ([3]; 144 hrs): nd (not detectable at >40 cycles by RT-PCR) | HNF (HNF-3 beta) gene expression ([3]; 144 hrs): + (detectable between 35 and 40 cycles by RT-PCR) | Insulin gene expression ([3]; 144 hrs): ++ (detectable at less than 35 cycles by RT-PCR with SE greater than 0.9) | Pdx-1 gene expression ([3]; 144 hrs): nd (not detectable at >40 cycles by RT-PCR) | sox17 gene expression ([3]; 144 hrs): +++ (detectable at less than 35 cycles by RT-PCR with SE less than 0.9)
